{"source": "patent US9114077B2", "about": "“Nanocrystals for use in topical cosmetic formulations and method of production thereof” (priority 2006, dated 2015)", "key": {"[1]": {"test_system": "skin of volunteers (UV erythem)", "assay": "photo-protective potential after topical application in vivo (MED for UV erythem, SPF)", "conditions": "human volunteers, 2 mg/cm^2 once daily on 4 days, UV irradiation day 4, 15 min after application", "excerpt": "The Rutin and the Hesperidin nanosuspensions were investigated in vivo regarding their photo-protective potential compared to solutions of a water-soluble Rutin conjugate with saccharide (example 15). Topical application of the anti-oxidants should increase the dose required to generate a UV erythem. The higher the photo-protective effect, the higher will be the increase in the MED for UV erythem generation. Based on the ratio MED of treated area/MED untreated area a sun protection factor can be calculated. […] To very well differentiate in efficiency between the preparations, the formulations were applied only over 4 days (day 1, 2, 3 and 4) and only once a day. […] It has to be noted that the selected concentration of Rutin saccharide was equivalent to 5% Rutin.\nVarious formulations were investigated regarding their photo-protective potential after topical application in vivo. These formulations contained antioxidants and the photo-protective potential was evaluated by assessing the MED for generating an UV erythem (MED—minimal dose required for generating an erythem, minimal erythem dose). The sun susceptibility of the skin of volunteers was assessed after four times of application (once daily) of the formulations in comparison to untreated skin. Based on this a sun protection factor (SPF) was calculated.\nThe study was performed as a placebo controlled double blind study. Three male and three female volunteers with normal skin of photo type II to III took part. The medium age of the female volunteers was 49.6±9.8 years (38.8-57.4 years). Topical application of the formulations took place on 4 subsequent days (2 mg/cm^2), once daily. On day 4 eradiation by UV was performed 15 minutes after application of the formulations to the skin using a sun simulator SU6p (m.u.t. GmbH, Wedel/Germany). The sun simulator created 6 single doses with a geometric increment of 25%. The 5 test areas were on the back of the volunteers (4 areas for the formulations, 1 untreated control area).\nA sun protection factor was defined as the ratio of the MED of the formulation treated area to the MED of the untreated area."}, "[2]": {"format": "physicochemical", "experimental": "5% Rutin micro-sized powder was dispersed in water, shaken and subsequently centrifuged at 4,000 rpm and then filtered through a 0.45 μm filter to remove any potential non-dissolved fine crystals. A Rutin nanosuspension was treated the same way but using a 0.2 μm filter."}}, "data": [{"molecule": "α-G Rutin PS", "values": [{"measurement": "sun protection factor (SPF) = ratio MED treated area/MED untreated area (partly given as MED)", "setting": "[1]; listed as AGRPS", "result": "1.27±0.31"}, {"measurement": "sun protection factor (SPF) = ratio MED treated area/MED untreated area (partly given as MED)", "setting": "[1]; listed as Rutin derivative solution", "result": 1.27}, {"measurement": "sun protection factor (SPF) = ratio MED treated area/MED untreated area (partly given as MED)", "setting": "[1]; listed as Rutin saccharide", "result": 1.27}]}, {"molecule": "C[C@@H]1O[C@@H](OC[C@H]2O[C@@H](Oc3c(-c4ccc(O)c(O)c4)oc4cc(O)cc(O)c4c3=O)[C@H](O)[C@@H](O)[C@@H]2O)[C@H](O)[C@H](O)[C@H]1O", "note": "[microcrystalline Rutin suspension, Rutin]", "values": [{"measurement": "saturation solubility (concentration of dissolved Rutin in filtrate)", "setting": "[2]", "result": 0.0079, "unit": "%"}]}, {"molecule": "CC(=O)Oc1c(C)c(C)c2c(c1C)CCC(C)(CCC[C@H](C)CCC[C@H](C)CCCC(C)C)O2", "note": "(stereo partly drawn) [α-tocopherol acetate]", "values": [{"measurement": "sun protection factor (SPF) = ratio MED treated area/MED untreated area (partly given as MED)", "setting": "[1]", "result": "0.85±0.23"}, {"measurement": "sun protection factor (SPF) = ratio MED treated area/MED untreated area (partly given as MED)", "setting": "[1]; listed as alpha-tocopherol acetate", "result": 0.85}]}]}
